The values below come from a melting point compilation (Tetko et al.; mined from patent text by program, amines drawn as free bases though some values may be those of a salt).

Bounds are passed on as bounds.

The term melting point denotes the temperature, or range, at which the solid turns liquid. For the compound `CCN(CC)CC1CCCCN1CC(=O)N1c2nc(C)cc(C)c2NC(=O)c2cccc(C)c21` (stereo not drawn), the melting point was in the range of 213 to 215 °C. In the case of `CC(C)(C)OC(=O)NCCCCC1C(=O)OC(C)(C)OC1=O`, the melting point fell in the range of 112 to 113 °C. `c1ccc2c(CSCc3cccc4ccccc34)cccc2c1`: the melting point lay in the range of 104 to 106 °C. `N[C@@H](Cc1ccc(C(F)(F)F)cc1)[C@H](O)c1ccncc1` (racemic) yielded a melting point of 97 to 98 °C. As for `Cc1noc(NS(=O)(=O)c2cccc3cccnc23)c1C`, the figure is 176 to 178 °C; as for `COc1ccc(-c2oc(C(=O)O)cc(=O)c2O)cc1`, 258 to 260 °C; as for `Cc1c(C(=O)NC2(C(=O)O)Cc3cccc(Br)c3C2)oc2cc(-c3ccc(Cl)cc3)ccc12` (stereo not drawn), 230 °C. With `Cc1cc(C(=O)c2sc(Nc3ccc(N4CCN(C)CC4)cc3)nc2N)c(C)s1`, the melting point lay in the range of 205 to 206 °C. For the compound `Cn1c(-c2cccnc2)cc(=O)n(C)c1=O`, the melting point was 120 to 122 °C.

Compound `Nc1nc(N)nc(-c2ccc(-c3ccccc3)s2)n1` came in with a melting point of over 250 °C.

Regarding `CCOC(=O)Cn1cc(-c2ccc(F)cc2)c(-c2ccc(S(C)(=O)=O)cc2)n1`, the melting point was 116 to 118 °C. In the case of `Cc1nc2ccc(F)cc2[nH]1`, the melting point was 177 to 178 °C.

In turn, `CCOCC(=NNc1ccc(C(F)(F)F)cc1)C(=O)O` displayed a melting point of 96 to 99 °C. In turn, `FC(F)(F)c1ccc(-c2cc(Oc3ccc4cc[nH]c4c3)ncn2)cc1` yielded a melting point of 206 to 209 °C.

Turning to `OCC(O)CSC(=S)Nc1ccccn1` (stereo not drawn), the melting point stood at 98 °C. Compound `COC(=O)c1ccc(-c2ccc(-c3ccccc3)c(OS(=O)(=O)C(F)(F)F)c2)cc1` yielded a melting point of 95 °C. Compound `CCCCc1oc2ccccc2c1C(=O)NCc1ccc2c(-c3ccc(OC)cc3)c(OCC#N)ccc2c1` returned a melting point of 139 to 142 °C.

`COC(=O)N1CCc2c(O)noc2C1` yielded a melting point of 136 to 138 °C. The result for `CC(=N)NC/C(F)=C\CC[C@H](N)C(=O)O` reads 51.5 to 56.3 °C; that for `O=C(NC12CC3CC(CC(C3)C1)C2)c1ccccc1C(c1ccc(O)cc1)c1ccc(O)cc1`, 167 to 169 °C; that for `Cn1cc(C(=O)C(=O)N2CCN(c3nc4cc(C(=O)Nc5nc(C(C)(C)C)cs5)ccn4c(=O)c3/C=C/C(=O)O)CC2)nc1N`, 210 to 216 °C. For `CCOC(OCC)c1cc(NC(c2ccccc2)(c2ccccc2)c2ccccc2)c(F)cn1`, the melting point was in the range of 125 to 127 °C.

As to `Fc1cccc(F)c1C1=NC(c2ccc(-c3ccc(C(F)(F)F)cc3)cc2)CO1` (stereo not drawn), the melting point is 148 to 149 °C. As for `COc1cc(C(=O)N(C(C)C)C(C)C)ccc1OCCCCOc1ccc(C(N)=NO)cc1`, the melting point lay within 63 to 65 °C. As for `CC(=O)N1CCN=C1Nc1cc(C)nn1Cc1ccccc1`, the figure is 148 to 149 °C. For the compound `CCCc1cc(CP(=O)(OC)OC)c2c(CP(=O)(OC)OC)cccc2c1OC`, the melting point fell in the range of 69 to 70 °C. Regarding `COc1ccc(-c2nc3cccnc3n2CC(=O)O)cc1`, the melting point was in the range of 260 to 263 °C. As for `N#Cc1ccc(N2C(=O)[C@@H]3[C@H](O)CCN3C2=O)c2ccccc12` (relative stereo), the melting point was in the range of 224 to 225 °C.

`CC(=O)OCCOC(C)n1cc(F)c(=O)[nH]c1=O` (stereo not drawn) yielded a melting point of 121 to 122 °C. As for `CC(C)Oc1nn(CCO)cc1C(=O)NCc1ccc(Cl)cc1Cl`, the figure is 122 to 123 °C.

With `CSC(=NCCSCc1nccs1)NC(=O)c1ccccc1`, the melting point lay within 64 to 65 °C. `CN1N=C(c2ccccc2)C(C)(Cc2ccccc2)NC1=O` (stereo not drawn) had a melting point of 174 to 175 °C.

The compound `COCCN1c2ccc([N+](=O)[O-])cc2CS1(=O)=O` came in with a melting point of 130 to 132 °C. The compound `Fc1cc(C(F)(F)F)ccc1/C=C/c1nc(COc2ccc(-c3nc(Cn4ccnc4)cs3)cc2)co1` displayed a melting point of 133 to 135 °C. In the case of `CCC(C)n1cc(Cl)nc(N2CCc3cc(OC)cc(C)c32)c1=O` (stereo not drawn), the melting point was in the range of 176 to 178 °C. The result for `CCOC(=O)C(C)c1ccc(-c2ccc(F)cc2F)c(O)c1` (stereo not drawn) reads 72 to 73 °C; that for `CCn1c2ccc(I)cc2c2cc(I)ccc21`, 75 to 79 °C; that for `O=C(c1ccc(Cl)cc1)c1c(CN2CCN(c3ccccc3)CC2)csc1N1C(=O)c2ccccc2C1=O`, 220 to 222 °C. With `Cc1ccc(S(=O)(=O)C2(CC#Cc3ccc(Cl)cc3)SC(=O)N(C(c3ccccc3)(c3ccccc3)c3ccccc3)C2=O)cc1` (stereo not drawn), the melting point lay in the range of 221 to 223 °C. As for `O=C(c1ccc(F)c(F)c1)N1CCC[C@H](c2nc(-c3ccccc3)no2)C1`, the melting point lay within 149 to 151 °C. As for `CN(C)C=Nc1ccc2nnc(-c3ccc([N+](=O)[O-])o3)n2n1`, the figure is 291 to 296 °C; as for `C=CCOc1ccc(C=CC(=O)c2c(O)cc(OC)cc2OC)cc1`, 112 °C; as for `O=Cc1c2ccccc2c(Cl)c2cc(Cl)ccc12`, 174 to 175 °C. `Cn1cc(Oc2cccc(Cl)c2Cl)c(=O)c(-c2cccc(C(F)(F)F)c2)c1` registered a melting point of 200 to 202 °C. Turning to `CC(=O)Nc1ccn(C2OC(COC(C)=O)C(OC(C)=O)C2O[N+](=O)[O-])c(=O)n1` (stereo not drawn), the melting point is 160 to 161 °C. For `CC(CC(=O)O)CC(=O)NCCc1ccccc1` (stereo not drawn), the melting point lay within 78 to 80 °C. `CC(=O)Nc1ccc(CN2CCC(C(c3ccccc3)c3ccccc3)CC2)cc1`: the melting point lay in the range of 182 to 183 °C. `Cc1cc(C(=O)NC2CC2)ccc1N1CCN(Cc2cnc3c(c2)NC(=O)[C@@H]2CCCN32)CC1` came in with a melting point of 227 to 234 °C. In turn, `C1=C(c2nc3ccccc3o2)CCN(Cc2ccccc2)C1` returned a melting point of 129 to 130 °C.

In the case of `CC1CC(C)CN(C(=O)c2ccc([N+](=O)[O-])cc2)C1` (stereo not drawn), the melting point was in the range of 120 to 125 °C. As for `O=C1CC(c2ccccc2)CC(=O)N1c1ccncc1`, the figure is 229 to 230 °C; as for `O=C(c1ccc([N+](=O)[O-])cc1)N1CCCCc2ncccc21`, 231 to 233 °C. Regarding `CC(C)(C)c1cc(C(=O)N2CCN(c3ccc(N)cc3)CC2)cc(C(C)(C)C)c1O`, the melting point was in the range of 221 to 222 °C. The result for `CC(C#N)=C1CCN(c2ccc(N3C[C@H](CNC(=O)C(Cl)(Cl)Cl)OC3=O)cc2F)CC1` reads 166 to 168 °C; that for `O=C(c1ccc(O)cc1O)c1ccccc1F`, 109 to 111 °C. On to `Cc1cccc(N2CCOCC2)c1NC(N)=S`, for which the melting point is 199 °C.

Take `CCCCc1c(CO)ccc2ccc(OC)cc12`: the melting point lay within 52 to 53 °C. Compound `CNS(=O)(=O)c1cc(C(=O)NNC(=O)c2occ(-c3ccccc3)c2-c2ccccc2)ccc1OC` gave a melting point of 239 to 241 °C. Compound `COc1ccc(Cl)cc1[C@]1(F)C(=O)N(C(=O)N[C@H](C(=O)O)C(C)C)c2cc(C(F)(F)F)ccc21` yielded a melting point of 100 to 104 °C. `O=C(O)COc1ccc(C(O)c2cccs2)c(Cl)c1Cl` (stereo not drawn) gave a melting point of 163 °C. For the compound `O=[N+]([O-])c1cnc(NCC(O)CO)cn1` (stereo not drawn), the melting point fell in the range of 185 to 187 °C. `COc1ccc(C(N)=S)c(OC)c1` had a melting point of 115 to 118 °C.

For the compound `O=c1ccc(-c2ccc(OCCCN3CCCCC3)nc2)n[nH]1`, the melting point lay in the range of 155 to 158 °C. The result for `Cc1nc(C(=O)c2ccc(Cl)cc2)sc1C` reads 97 °C. Compound `Cc1cc(-c2nc3ccccc3c(=O)n2-c2ccc(I)cc2)cc(C)c1OCCO` displayed a melting point of 101 to 103 °C. `COC(=O)c1csc(C)c1N` displayed a melting point of 78 °C.

As for `CC(C)c1ccc(-n2c(CC(=O)O)c(C(=O)O)c3cc(Oc4ccc(Cl)cc4)ccc32)cc1`, the melting point is 174 to 180 °C. `O=C(O)CCSC(CCCc1ccccc1)c1ccc(OCc2ccc3ccccc3n2)cc1` (stereo not drawn): the melting point is 97 to 100 °C. On to `CCC(CC)Nc1cc(C)nc(Oc2c(C)cc(C)cc2C)c1C(=O)OC`, for which the melting point lay within 98 to 102 °C. As for `CCCOc1ccc(-c2ccc3c(c2)C=C(C(=O)Nc2ccc(CN(C)C4CCOCC4)cc2)CCS3(=O)=O)cc1OCC`, the figure is 203 to 205 °C; as for `CCCCCCCN(Cc1ccc(CCC(C)C)cc1)C(=O)NC1(OC)C=C(C)C=CN1` (stereo not drawn), 90 to 91 °C; as for `Cc1ccc(-c2c(NS(=O)(=O)c3ccc(C(C)(C)C)cc3)ncnc2OCCOc2ncc(CCc3ccccc3)cn2)cc1`, 158 to 160 °C. For `O=[N+]([O-])c1ccc(OCc2ccccc2)c(C(F)(F)F)c1`, the melting point lay in the range of 112 to 114 °C. For `CN1CCN(c2ncccc2OC2CCN(c3ccc(Br)cc3)C2=O)CC1` (stereo not drawn), the melting point was 72 to 82 °C.

Consider `COc1c2c(c(OC)c(OC)c1OC)CC(CCCCOc1ccc(C(=O)N3CCOCC3)cc1)C2`, for which the melting point lay within 64 to 72 °C.

As for `COCCNC(=O)c1cccc(-c2cccc3cc(Cc4cccc(S(C)(=O)=O)c4)sc23)c1`, the melting point lay within 131 to 132 °C.

`Cc1ccc(S(=O)(=O)OCC2(F)CCN(C(=O)c3ccc(F)c(Cl)c3)CC2)cc1` had a melting point of 92 °C. `COc1cc(OC)c2c(C)c(CCN3CCN(c4ccccc4O)CC3)c(=O)oc2c1` yielded a melting point of 164 to 165 °C. Consider `CC(C)CNC(=O)C=CC=Cc1ccc2c(c1)OCO2`, for which the melting point was in the range of 156 to 160 °C. The result for `CCNS(=O)(=O)c1ccccc1C1CCCCC1` reads 100 to 102 °C; that for `CCCc1cc(=O)n(-c2cc(OC(C)C)c(Cl)cc2F)c(=O)n1C`, 115 to 117 °C. As for `O=C1COc2ccc(CO)cc2N1`, the figure is 186 to 187 °C; as for `CCOC(=O)c1c(C(F)(F)F)nc(C(F)(F)F)c(C(=O)OCC)c1OC`, 46.5 to 47.5 °C; as for `COc1cccc(OC)c1C(=O)Nc1nnc(-c2ccccc2Cl)s1`, 235 to 237 °C. For `Cn1c(NCCCCCC(=O)O)c(NC=O)c(=O)n(C)c1=O`, the melting point was in the range of 152 to 153 °C. As for `Nc1ccc(Oc2c(NCc3ccccc3)cc(C(=O)O)cc2S(N)(=O)=O)cc1`, the figure is 272 °C; as for `Oc1c(Br)cnc2ccccc12`, 286 to 287 °C. The result for `Cc1cccc(-n2c(-c3sc(Nc4ccc(Cl)cc4)nc3C)nc3ccccc3c2=O)c1` reads 236 to 238 °C.
